The results in this text go back to patent publication US20070299092A1 (Wyeth, priority 2004, published 2007).

“And” between values parts separate entries of the source, which are not always exact repeats. Identical values can stand only once. Like-named read-outs stand apart in the source and are kept apart here.

For test [1], the system named is Human umbilical vein endothelial cells (HUVEC). Put plainly: HUVEC proliferation assay, VEGF-dependent growth ([3H]-thymidine incorporation). Format: cell-based. The protocol: Cells were plated into 96-well dishes (4000 cells per well) and allowed to attach overnight. HUVEC were rinsed one time with 100 μl of EBMc-V (EBM supplemented with all above components except serum or VEGF), then 50 ul of EBMc-V was added to cells. Compounds were prepared at 200× stocks in DMSO, diluted into EBMc-V media as 4× stocks, then 50 ul added to appropriate wells. Finally, 100 μl of 2×VEGF (100 ng/ml prepared in EBMc-V; final 50 ng/ml VEGF) was added to all VEGF-treated wells. EBMc-V (no VEGF) was added to negative control wells. Parallel compound-treated plates were prepared except that 100 μl of EGM2 media containing 2% serum but lacking VEGF (EGMc-V) was added. Cells were incubated for 4-5 days at 37° C.
DNA synthesis was assessed by thymidine incorporation. Cells were incubated for 5 hours in 1 μCi of [^3H]-thymidine (PerkinElmer) by addition of 10 ul of 0.1 μCi/ul thymidine prepared in PBS to each well. After incubation, media was aspirated and the cells trypsinized and collected onto a mat using a vacuum-based Micro Cell Harvester (Skatron). [^3H]-thymidine was counted in a liquid scintillation counter. Compounds evaluated for ability to inhibit VEGF-dependent growth of human umbilical vein endothelial cells (HUVEC).

A further test deals with KDR (Homo sapiens, UniProt P35968). Description: cell-based. The conditions noted are these: for inhibition at 1 µM: read-out: % Inhibition of KDR kinase autophosphorylation in KDR15 cells, compound conc. 1000 nM.
Sequence of KDR (P35968 20-1356): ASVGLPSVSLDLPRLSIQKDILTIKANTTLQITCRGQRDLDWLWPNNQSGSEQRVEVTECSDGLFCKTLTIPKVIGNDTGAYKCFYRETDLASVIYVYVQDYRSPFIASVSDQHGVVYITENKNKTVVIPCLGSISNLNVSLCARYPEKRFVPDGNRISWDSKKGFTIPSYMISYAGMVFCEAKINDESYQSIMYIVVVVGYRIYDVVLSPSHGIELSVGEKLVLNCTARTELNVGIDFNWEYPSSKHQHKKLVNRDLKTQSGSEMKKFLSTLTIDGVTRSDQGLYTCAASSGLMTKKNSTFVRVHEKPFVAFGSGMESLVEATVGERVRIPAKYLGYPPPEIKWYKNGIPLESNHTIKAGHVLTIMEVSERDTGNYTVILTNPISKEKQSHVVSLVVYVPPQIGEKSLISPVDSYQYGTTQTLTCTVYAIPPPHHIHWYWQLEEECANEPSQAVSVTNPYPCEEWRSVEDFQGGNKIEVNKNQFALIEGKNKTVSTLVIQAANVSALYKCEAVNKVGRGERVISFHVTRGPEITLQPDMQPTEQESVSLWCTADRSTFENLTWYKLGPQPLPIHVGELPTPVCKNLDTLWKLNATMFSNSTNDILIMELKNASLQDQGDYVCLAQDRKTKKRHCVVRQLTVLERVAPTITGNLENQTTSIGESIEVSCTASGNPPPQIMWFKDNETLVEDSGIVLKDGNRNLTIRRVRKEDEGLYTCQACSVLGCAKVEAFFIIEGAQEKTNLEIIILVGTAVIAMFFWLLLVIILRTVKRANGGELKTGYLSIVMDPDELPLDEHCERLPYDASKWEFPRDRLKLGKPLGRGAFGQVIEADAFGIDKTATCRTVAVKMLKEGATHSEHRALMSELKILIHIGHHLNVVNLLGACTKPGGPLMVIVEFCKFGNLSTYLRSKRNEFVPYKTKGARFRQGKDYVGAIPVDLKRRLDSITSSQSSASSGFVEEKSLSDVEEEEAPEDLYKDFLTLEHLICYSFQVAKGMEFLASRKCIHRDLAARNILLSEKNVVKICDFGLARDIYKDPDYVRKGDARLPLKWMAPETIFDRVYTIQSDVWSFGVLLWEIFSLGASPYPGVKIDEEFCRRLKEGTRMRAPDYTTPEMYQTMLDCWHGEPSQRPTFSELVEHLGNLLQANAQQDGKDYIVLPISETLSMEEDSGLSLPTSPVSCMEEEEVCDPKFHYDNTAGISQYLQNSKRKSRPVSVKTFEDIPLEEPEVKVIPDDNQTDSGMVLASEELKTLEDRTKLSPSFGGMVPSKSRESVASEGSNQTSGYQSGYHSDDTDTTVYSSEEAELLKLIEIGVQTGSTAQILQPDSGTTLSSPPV
Test [2] has as its target T1, human KDR (VEGF-receptor-2) (Homo sapiens, UniProt P35968).
T1 construct: beginning at Met-806; (5′-ATG GAT CCA GAT GM CTC CCA TTG) and ending at Val-1356; made in house
Put plainly: KDR kinase enzyme assay (DELFIA, KDR-IC-Flag, poly(Glu4-Tyr) peptide). The test is classed as biochemical. Particulars: for inhibition at 0.1 µM: Concentration 100 nM; for inhibition at 1 µM: Concentration 1000 nM.

[3] abbreviates: ATP conc. 10 μM, read-out: % Inhibition.
Setting [4] is: ATP conc. 1000 μM, read-out: % Inhibition.

T1 sequence (P35968 806-1356): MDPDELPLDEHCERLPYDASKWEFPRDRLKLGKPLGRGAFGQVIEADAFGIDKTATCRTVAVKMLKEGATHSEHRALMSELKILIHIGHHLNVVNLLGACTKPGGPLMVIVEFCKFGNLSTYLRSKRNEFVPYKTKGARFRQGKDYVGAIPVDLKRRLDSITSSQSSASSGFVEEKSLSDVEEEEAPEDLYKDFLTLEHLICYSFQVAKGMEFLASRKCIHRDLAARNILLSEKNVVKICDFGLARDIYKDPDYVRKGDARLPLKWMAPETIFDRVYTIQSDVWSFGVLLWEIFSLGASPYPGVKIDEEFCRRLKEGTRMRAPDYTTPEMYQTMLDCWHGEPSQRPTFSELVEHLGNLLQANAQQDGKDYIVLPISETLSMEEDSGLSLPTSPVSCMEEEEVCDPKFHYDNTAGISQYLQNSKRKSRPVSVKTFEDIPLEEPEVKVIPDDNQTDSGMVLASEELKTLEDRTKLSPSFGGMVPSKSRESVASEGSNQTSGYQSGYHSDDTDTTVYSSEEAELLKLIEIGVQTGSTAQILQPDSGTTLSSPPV

As to `CCC1=CC(=O)C(Nc2ncnc3cc(OC)c(OC)cc23)=CC1=O` [Example 8, 2-[(6,7-dimethoxy-4-quinazolinyl)amino]-5-ethylbenzo-1,4-quinone], the inhibition (in general, the change of the read-out against control, counted positive when it falls) at 10 µM in test [1] (Homo sapiens, HUVEC, conc. 10000 nM) came out at 87%. In addition, the “% Inhibition of VEGF-dependent growth of HUVEC” value in test [1] (conc. 1000 nM) is 30% and 51% and 37%; in test [1] (conc. 10000 nM), 98% and 89%. The IC50 (usually the concentration that inhibits the measured activity by half) is 172 nM at KDR (IC50 (nM), inhibition of KDR kinase autophosphorylation in KDR15 cells, KDR15 cells, VEGF 50 ng/ml, phospho-KDR-Y996 immunoblot); 175 nM and 177 nM in test [2] (ATP conc. 10 μM); 200 nM in test [2] (ATP conc. 100 μM); 239 nM in test [2] (ATP conc. 1000 μM). In addition, at KDR (read-out: % Inhibition of KDR kinase autophosphorylation in KDR15 cells, compound conc. 500 nM), the inhibition at 0.5 µM was 25%. The inhibition at 0.1 µM in test [2] (setting [3]) was 51%. In addition, the results for the inhibition at 1 µM in test [2] (setting [3]) and in test [2] (setting [4]) were 82% and 80%, respectively.

With `COCCOc1cc2ncnc(NC3=CC(=O)C(Oc4cccc(Cl)c4)=CC3=O)c2cc1OC` [Example 33, 2-(3-chlorophenoxy)-5-{[6-methoxy-7-(2-methoxyethoxy)quinazolin-4-yl]amino}benzo-1,4-quinone], the inhibition at 1 µM was found to be 19% on KDR, 96% in test [2] (ATP conc. 10 μM) and 98% in test [2] (ATP conc. 1000 μM). In test [2] (ATP conc. 10 μM), the inhibition at 0.1 µM came to 84%.

Consider `COCCOc1cc2ncnc(NC3=CC(=O)C(Oc4cccc(C(C)=O)c4)=CC3=O)c2cc1OC` [Example 34, 2-(3-acetylphenoxy)-5-{[6-methoxy-7-(2-methoxyethoxy)quinazolin-4-yl]amino}benzo-1,4-quinone], for which the inhibition at 1 µM on KDR was found to be 12%; in test [2] (setting [3]) it was 95%; in test [2] (setting [4]), 97%. Also, the inhibition at 0.1 µM in test [2] (setting [3]) was 55%.

Consider `COCCOc1cc2ncnc(NC3=CC(=O)C(Oc4ccc(SC)cc4)=CC3=O)c2cc1OC` [Example 35, 2-{[6-methoxy-7-(2-methoxyethoxy)quinazolin-4-yl]amino}-5-[4-(methylthio)phenoxy]benzo-1,4-quinone], for which the inhibition at 1 µM at KDR was 39%; in test [2] (ATP conc. 10 μM), 96%; in test [2] (ATP conc. 1000 μM) it was 98%. Also, the inhibition at 0.1 µM in test [2] (ATP conc. 10 μM) was found to be 87%.

In the case of `CCOC(=O)Cc1ccc(OC2=CC(=O)C(Nc3ncnc4cc(OCCOC)c(OC)cc34)=CC2=O)cc1` [Example 37, ethyl {4-[(4-{[6-methoxy-7-(2-methoxyethoxy)quinazolin-4-yl]amino}-3,6-dioxocyclohexa-1,4-dien-1-yl)oxy]phenyl}acetate], the inhibition at 1 µM at KDR came out at 11%. Besides, in test [2] (setting [3]), the inhibition at 0.1 µM worked out at 89% and the inhibition at 1 µM turned out to be 93%.

On to `COCCOc1cc2ncnc(NC3=CC(=O)C(Oc4ccc(CCC(=O)OC)cc4)=CC3=O)c2cc1OC` [Example 40, methyl 3-{4-[(4-{[6-methoxy-7-(2-methoxyethoxy)quinazolin-4-yl]amino}-3,6-dioxocyclohexa-1,4-dien-1-yl)oxy]phenyl}propanoate], for which the inhibition at 1 µM came to 110% at KDR and 94% in test [2] (setting [3]). The inhibition at 0.1 µM in test [2] (setting [3]) stood at 92%.

Take `COCCOc1cc2ncnc(NC3=CC(=O)C(Oc4ccc(C(=O)OC)cc4)=CC3=O)c2cc1OC` [Example 42, methyl 4-[(4-{[6-methoxy-7-(2-methoxyethoxy)quinazolin-4-yl]amino}-3,6-dioxocyclohexa-1,4-dien-1-yl)oxy]benzoate]: the inhibition at 1 µM on KDR is 64%; in test [2] (setting [3]), 94%. Also, in test [2] (setting [3]), the inhibition at 0.1 µM was 92%.

For the compound `CCOC(=O)c1c(C)[nH]c2ccc(OC3=CC(=O)C(Nc4ncnc5cc(OCCOC)c(OC)cc45)=CC3=O)cc12` [Example 45, ethyl 5-[(4-{[6-methoxy-7-(2-methoxyethoxy)quinazolin-4-yl]amino}-3,6-dioxocyclohexa-1,4-dien-1-yl)oxy]-2-methyl-1H-indole-3-carboxylate], at KDR, the inhibition at 1 µM amounted to 99%. Moreover, the 50% inhibitory concentration (IC50) in test [2] (ATP conc. 10 μM) came out at 2.6 nM. Besides, in test [2] (setting [3]), the inhibition at 0.1 µM amounted to 92% and the inhibition at 1 µM is 93%.

For the compound `COCCOc1cc2ncnc(NC3=CC(=O)C(Oc4ccc(Br)cc4)=CC3=O)c2cc1OC` [Example 46, 2-(4-bromophenoxy)-5-{[6-methoxy-7-(2-methoxyethoxy)quinazolin-4-yl]amino}benzo-1,4-quinone], on KDR, the inhibition at 1 µM was determined as 79%. Moreover, in test [2] (setting [3]), the inhibition at 0.1 µM is 93% and the inhibition at 1 µM stood at 94%.

Take `COCCOc1cc2ncnc(NC3=CC(=O)C(Oc4ccc(C)cc4-c4ccno4)=CC3=O)c2cc1OC` [Example 47, 2-(2-isoxazol-5-yl-4-methylphenoxy)-5-{[6-methoxy-7-(2-methoxyethoxy)quinazolin-4-yl]amino}benzo-1,4-quinone]: the inhibition at 1 µM on KDR was 66%; in test [2] (setting [3]) it was 94%. In addition, the inhibition at 0.1 µM in test [2] (setting [3]) came to 86%.

Regarding `COCCOc1cc2ncnc(NC3=CC(=O)C(Oc4ccc(C(=O)OCc5ccccc5)cc4)=CC3=O)c2cc1OC` [Example 48, benzyl 4-[(4-{[6-methoxy-7-(2-methoxyethoxy)quinazolin-4-yl]amino}-3,6-dioxocyclohexa-1,4-dien-1-yl)oxy]benzoate], the inhibition at 1 µM at KDR was 74%. For the same compound, in test [2] (setting [3]), the inhibition at 0.1 µM was determined as 86% and the inhibition at 1 µM was found to be 93%.

For the compound `COCCOc1cc2ncnc(NC3=CC(=O)C(Oc4ccc(C(=O)Cc5ccccc5)cc4)=CC3=O)c2cc1OC` [Example 49, 2-{[6-methoxy-7-(2-methoxyethoxy)quinazolin-4-yl]amino}-5-[4-(phenylacetyl)phenoxy]benzo-1,4-quinone], the inhibition at 1 µM on KDR came out at 90%. In test [2] (ATP conc. 10 μM), this compound had an IC50 of 149 nM. In addition, in test [2] (setting [3]), the inhibition at 0.1 µM worked out at 88% and the inhibition at 1 µM amounted to 93%.

As for `COCCOc1cc2ncnc(NC3=CC(=O)C(Oc4ccc5cc(Br)ccc5c4)=CC3=O)c2cc1OC` [Example 51, 2-[(6-bromo-2-naphthyl)oxy]-5-{[6-methoxy-7-(2-methoxyethoxy)quinazolin-4-yl]amino}benzo-1,4-quinone], the inhibition at 1 µM at KDR came to 105%. For the same compound, in test [2] (setting [3]), the inhibition at 0.1 µM worked out at 91% and the inhibition at 1 µM was 93%.

In the case of `COCCOc1cc2ncnc(NC3=CC(=O)C(Oc4ccccc4OCc4ccccc4)=CC3=O)c2cc1OC` [Example 52, 2-[2-(benzyloxy)phenoxy]-5-{[6-methoxy-7-(2-methoxyethoxy)quinazolin-4-yl]amino}benzo-1,4-quinone], on KDR, the inhibition at 1 µM is 94%. Moreover, in test [2] (setting [3]), the inhibition at 0.1 µM was 91% and the inhibition at 1 µM worked out at 95%.

As to `COCCOc1cc2ncnc(NC3=CC(=O)C(Oc4ccc5c(c4)Cc4ccccc4-5)=CC3=O)c2cc1OC` [Example 53, 2-(9H-fluoren-2-yloxy)-5-{[6-methoxy-7-(2-methoxyethoxy)quinazolin-4-yl]amino}benzo-1,4-quinone], the inhibition at 1 µM on KDR was 79%. Moreover, in test [2] (setting [3]), the inhibition at 0.1 µM turned out to be 90% and the inhibition at 1 µM is 94%.

`COCCOc1cc2ncnc(NC3=CC(=O)C(Oc4ccc(CCN)cc4)=CC3=O)c2cc1OC` [Example 54, 2-[4-(2-aminoethyl)phenoxy]-5-{[6-methoxy-7-(2-methoxyethoxy)quinazolin-4-yl]amino}benzo-1,4-quinone]: the inhibition at 1 µM on KDR was -5%. In test [2] (setting [3]), the inhibition at 0.1 µM was -2% and the inhibition at 1 µM was found to be 10%.

With `COCCOc1cc2ncnc(NC3=CC(=O)C(N(C)c4cccc(F)c4)=CC3=O)c2cc1OC` [Example 74, 2-[(3-fluorophenyl)(methyl)amino]-5-{[6-methoxy-7-(2-methoxyethoxy)quinazolin-4-yl]amino}benzo-1,4-quinone], the inhibition at 1 µM on KDR is 4%; in test [2] (setting [3]), 89%; in test [2] (setting [4]), 84%. Also, the inhibition at 0.1 µM in test [2] (setting [3]) is 27%.

As to `COCCOc1cc2ncnc(NC3=CC(=O)C(N(C)Cc4ccccc4)=CC3=O)c2cc1OC` [Example 82, 2-[benzyl(methyl)amino]-5-{[6-methoxy-7-(2-methoxyethoxy)quinazolin-4-yl]amino}benzo-1,4-quinone], the inhibition at 1 µM at KDR came out at 12%; in test [2] (setting [3]), 30%; in test [2] (setting [4]), 45%. In addition, in test [2] (setting [3]), the inhibition at 0.1 µM was determined as 15%.
